Assays:
Assay in all cases: cell-based
human ZIP8 (hZIP8) = human ZIP8 (hZIP8) (Homo sapiens, UniProt Q9C0K1)
[1] = biological target: human ZIP14 (hZIP14) isoform 1, HA-tagged (Homo sapiens, UniProt Q15043)
[2] = biological target: human ZIP14 (hZIP14) isoform 1, HA-tagged (Homo sapiens, UniProt Q15043, D443L)
Sequence of human ZIP14 (hZIP14) isoform 1, HA-tagged (Homo sapiens, UniProt Q15043, D443L) (Q15043 31-492 D443L): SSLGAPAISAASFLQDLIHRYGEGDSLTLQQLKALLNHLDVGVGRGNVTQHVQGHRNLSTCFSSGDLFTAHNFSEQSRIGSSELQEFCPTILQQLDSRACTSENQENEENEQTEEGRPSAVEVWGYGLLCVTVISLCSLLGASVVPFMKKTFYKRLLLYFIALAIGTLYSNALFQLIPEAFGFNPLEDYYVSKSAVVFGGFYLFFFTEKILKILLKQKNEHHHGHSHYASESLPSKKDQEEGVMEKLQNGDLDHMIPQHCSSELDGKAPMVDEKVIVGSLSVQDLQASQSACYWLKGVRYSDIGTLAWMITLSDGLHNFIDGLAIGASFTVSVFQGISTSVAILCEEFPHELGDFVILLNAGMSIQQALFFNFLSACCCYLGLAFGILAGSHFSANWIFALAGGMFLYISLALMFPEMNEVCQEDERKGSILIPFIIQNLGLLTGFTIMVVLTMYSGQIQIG

Sequence of human ZIP8 (hZIP8) (Q9C0K1 23-460): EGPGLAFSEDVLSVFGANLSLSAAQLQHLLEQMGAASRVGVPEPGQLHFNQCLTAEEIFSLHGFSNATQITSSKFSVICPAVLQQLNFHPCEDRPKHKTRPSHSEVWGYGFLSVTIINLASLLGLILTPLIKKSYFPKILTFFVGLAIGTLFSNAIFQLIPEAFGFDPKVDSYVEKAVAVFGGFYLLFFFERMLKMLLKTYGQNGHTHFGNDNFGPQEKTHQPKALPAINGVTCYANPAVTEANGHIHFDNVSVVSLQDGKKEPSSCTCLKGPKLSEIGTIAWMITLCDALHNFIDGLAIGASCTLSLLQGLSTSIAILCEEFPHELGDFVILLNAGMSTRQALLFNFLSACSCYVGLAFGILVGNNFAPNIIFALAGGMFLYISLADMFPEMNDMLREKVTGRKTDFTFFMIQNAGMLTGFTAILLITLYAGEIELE
Sequence of human ZIP14 (hZIP14) isoform 1, HA-tagged (Homo sapiens, UniProt Q15043) (Q15043 31-492): as the sequence (Q15043 31-492 D443L) above, with L413D counted along it

## O=C1NCN(c2ccccc2)C12CCN(CCc1ccccc1)CC2 [PPTD, 1-phenyl-8-(2-phenylethyl)-1,3,8-triazaspiro[4.5]decan-4-one]
Human ZIP8 (hZIP8)
  IC50: > 37 µM
[1]
  IC50: 8.9 µM
[2]
  IC50: 19 µM
